The text below walks through data of US11078198B2 (BRISTOL-MYERS SQUIBB COMPANY, priority 2017, dated 2021).

Structures are written as SMILES.

The target in this experiment is T1, human FXR (Homo sapiens, UniProt Q96RI1).
T1 construct: expressed in transfected cells; host or cells: HEK293 cells stably carrying a 5xGal4-response-element firefly luciferase reporter, transiently transfected with pcDNA3.1-Gal4-FXR
T1 sequence (Q96RI1 262-486 limits assumed): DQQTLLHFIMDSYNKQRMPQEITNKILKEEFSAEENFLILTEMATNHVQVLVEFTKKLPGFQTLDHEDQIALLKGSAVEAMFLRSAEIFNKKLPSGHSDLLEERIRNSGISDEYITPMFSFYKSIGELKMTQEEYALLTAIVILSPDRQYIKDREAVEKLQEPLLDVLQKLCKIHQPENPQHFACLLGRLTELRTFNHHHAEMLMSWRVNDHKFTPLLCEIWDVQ
Kind of experiment: transient human FXR/Gal4-luciferase reporter assay. In kind it is cell-based. The following applies: Gal4-hFXR transfected HEK293 reporter cells; relative to 8 μM GW-4064. The gist of the method:
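Transient Gal4-hFXR LBD fusion (pcDNA3.1, Lipofectamine, overnight) expressed in a HEK293 reporter line stably bearing five Gal4 elements upstream of firefly luciferase, grown in charcoal/dextran-stripped FBS. Compound dilutions in DMSO incubated with cells overnight at 37° C, 5% CO2, before luciferase readout.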
A general note: A reporter such as luciferase makes a cellular process visible.
`O=C(O)c1cc2ccc(N3CCC4(C=C(c5c(-c6ccncc6Cl)noc5C5CC5)C4)CC3)cc2nn1` [Example 80, 7-(2-(3-(3-Chloropyridin-4-yl)-5-cyclopropylisoxazol-4-yl)-7-azaspiro[3.5]non-1-en-7-yl)cinnoline-3-carboxylic acid]: a half-maximal effect (EC50) was put at 1360 nM.

Take `O=C(O)c1cc2ccc(N3CCC4(C=C(c5c(-c6cnccc6C(F)(F)F)noc5C5CC5)C4)CC3)cc2nn1` [Example 81, 7-(2-(5-Cyclopropyl-3-(4-(trifluoromethyl)pyridin-3-yl)isoxazol-4-yl)-7-azaspiro[3.5]non-1-en-7-yl)cinnoline-3-carboxylic acid]: the EC50 amounted to 1540 nM.

Turning to `O=C(O)c1cc(C(F)(F)F)c2cc(N3CCC4(C=C(c5c(-c6c(F)cccc6F)noc5C5CC5)C4)CC3)ccc2n1` [Example 82, 6-(2-(5-Cyclopropyl-3-(2,6-difluorophenyl)isoxazol-4-yl)-7-azaspiro[3.5]non-1-en-7-yl)-4-(trifluoromethyl)quinoline-2-carboxylic acid], the midpoint of the response, the EC50, lay at 356 nM.

Regarding `O=C(O)c1cc(C(F)(F)F)c2cc(N3CCC4(C=C(c5c(-c6c(Cl)cccc6Cl)noc5C5CC5)C4)CC3)ccc2n1` [Example 83, 6-(2-(5-Cyclopropyl-3-(2,6-dichlorophenyl)isoxazol-4-yl)-7-azaspiro[3.5]non-1-en-7-yl)-4-(trifluoromethyl)quinoline-2-carboxylic acid], a half-maximal effect (EC50) was put at 38 nM.

In turn, `CC(C)c1onc(-c2c(Cl)cccc2Cl)c1C1=CC2(CCN(c3ccc4nc(C(=O)O)cc(C(F)(F)F)c4c3)CC2)C1` [Example 84, 6-(2-(3-(2,6-Dichlorophenyl)-5-isopropylisoxazol-4-yl)-7-azaspiro[3.5]non-1-en-7-yl)-4-(trifluoromethyl)quinoline-2-carboxylic acid] registered an EC50 of 127 nM.

For `O=C(O)c1cc(C(F)(F)F)c2cc(N3CCC4(C=C(c5c(-c6c(Cl)cc(F)cc6Cl)noc5C5CC5)C4)CC3)ccc2n1` [Example 86, 6-(2-(5-Cyclopropyl-3-(2,6-dichloro-4-fluorophenyl)isoxazol-4-yl)-7-azaspiro[3.5]non-1-en-7-yl)-4-(trifluoromethyl)quinoline-2-carboxylic acid], the midpoint of the response, the EC50, lay at 68 nM.

The compound `Cc1cc(C(=O)O)nc2ccc(N3CCC4(C=C(c5c(-c6c(Cl)cncc6Cl)noc5C5CC5)C4)CC3)cc12` [Example 87, 6-(2-(5-Cyclopropyl-3-(3,5-dichloropyridin-4-yl)isoxazol-4-yl)-7-azaspiro[3.5]non-1-en-7-yl)-4-methylquinoline-2-carboxylic acid] yielded an EC50 of 76 nM.

The compound `O=C(O)c1cc(C(F)(F)F)c2cc(N3CCC4(C=C(c5c(-c6c(F)cccc6Cl)noc5C5CC5)C4)CC3)ccc2n1` [Example 88, 6-(2-(3-(2-Chloro-6-fluorophenyl)-5-cyclopropylisoxazol-4-yl)-7-azaspiro[3.5]non-1-en-7-yl)-4-(trifluoromethyl)quinoline-2-carboxylic acid] came in with an EC50 of 150 nM.

`Cc1cccc(Cl)c1-c1noc(C2CC2)c1C1=CC2(CCN(c3ccc4nc(C(=O)O)cc(C(F)(F)F)c4c3)CC2)C1` [Example 89, 6-(2-(3-(2-Chloro-6-methylphenyl)-5-cyclopropylisoxazol-4-yl)-7-azaspiro[3.5]non-1-en-7-yl)-4-(trifluoromethyl)quinoline-2-carboxylic acid] showed an EC50 of 202 nM.

Consider `O=C(O)c1cc(C(F)(F)F)c2cc(N3CCC4(C=C(c5c(-c6cnccc6C(F)(F)F)noc5C5CC5)C4)CC3)ccc2n1` [Example 90, 6-(2-(5-Cyclopropyl-3-(4-(trifluoromethyl)pyridin-3-yl)isoxazol-4-yl)-7-azaspiro[3.5]non-1-en-7-yl)-4-(trifluoromethyl)quinoline-2-carboxylic acid], for which the EC50 came to 195 nM.

Compound `O=C(O)c1cc(C(F)(F)F)c2cc(N3CCC4(C=C(c5c(-c6ncccc6Cl)noc5C5CC5)C4)CC3)ccc2n1` [Example 91, 6-(2-(3-(3-Chloropyridin-2-yl)-5-cyclopropylisoxazol-4-yl)-7-azaspiro[3.5]non-1-en-7-yl)-4-(trifluoromethyl)quinoline-2-carboxylic acid] displayed an EC50 of 219 nM.

`O=C(O)c1cc(C(F)(F)F)c2cc(N3CCC4(C=C(c5c(-c6cccnc6C(F)(F)F)noc5C5CC5)C4)CC3)ccc2n1` [Example 92, 6-(2-(5-Cyclopropyl-3-(2-(trifluoromethyl)pyridin-3-yl)isoxazol-4-yl)-7-azaspiro[3.5]non-1-en-7-yl)-4-(trifluoromethyl)quinoline-2-carboxylic acid] displayed an EC50 of 253 nM.

Compound `O=C(O)c1cc(C(F)(F)F)c2cc(N3CCC4(C=C(c5c(-c6c(F)cncc6F)noc5C5CC5)C4)CC3)ccc2n1` [Example 93, 6-(2-(5-Cyclopropyl-3-(3,5-difluoropyridin-4-yl)isoxazol-4-yl)-7-azaspiro[3.5]non-1-en-7-yl)-4-(trifluoromethyl)quinoline-2-carboxylic acid] returned an EC50 of 511 nM.

`CC1(c2onc(-c3c(Cl)cncc3Cl)c2C2=CC3(CCN(c4ccc5nc(C(=O)O)cc(C(F)(F)F)c5c4)CC3)C2)CC1` [Example 94, 6-(2-(3-(3,5-Dichloropyridin-4-yl)-5-(1-methylcyclopropyl)isoxazol-4-yl)-7-azaspiro[3.5]non-1-en-7-yl)-4-(trifluoromethyl)quinoline-2-carboxylic acid]: the response was half-maximal at 507 nM (EC50).

Compound `CC(C)c1onc(-c2c(Cl)cncc2Cl)c1C1=CC2(CCN(c3ccc4nc(C(=O)O)cc(C(F)(F)F)c4c3)CC2)C1` [Example 95, 6-(2-(3-(3,5-Dichloropyridin-4-yl)-5-isopropylisoxazol-4-yl)-7-azaspiro[3.5]non-1-en-7-yl)-4-(trifluoromethyl)quinoline-2-carboxylic acid] had an EC50 of 37 nM.

Turning to `O=C(O)c1cc(C(F)(F)F)c2cc(N3CCC4(C=C(c5c(-c6ccc(F)cc6Cl)noc5C5CC5)C4)CC3)ccc2n1` [Example 96, 6-(2-(3-(2-Chloro-4-fluorophenyl)-5-cyclopropylisoxazol-4-yl)-7-azaspiro[3.5]non-1-en-7-yl)-4-(trifluoromethyl)quinoline-2-carboxylic acid], the response was half-maximal at 869 nM (EC50).

`COc1cncc(F)c1-c1noc(C2CC2)c1C1=CC2(CCN(c3ccc4nc(C(=O)O)cc(C(F)(F)F)c4c3)CC2)C1` [Example 97, 6-(2-(5-Cyclopropyl-3-(3-fluoro-5-methoxypyridin-4-yl)isoxazol-4-yl)-7-azaspiro[3.5]non-1-en-7-yl)-4-(trifluoromethyl)quinoline-2-carboxylic acid] registered an EC50 of 1940 nM.

The compound `O=C(O)c1cc(C(F)(F)F)c2cc(N3CCC4(C=C(c5c(C6CCCCC6)noc5C5CC5)C4)CC3)ccc2n1` [Example 98, 6-(2-(3-Cyclohexyl-5-cyclopropylisoxazol-4-yl)-7-azaspiro[3.5]non-1-en-7-yl)-4-(trifluoromethyl)quinoline-2-carboxylic acid] yielded an EC50 of 1720 nM.

Take `O=C(O)c1cc(C(F)(F)F)c2cc(N3CCC4(C=C(c5c(-c6ccccc6C(F)(F)F)noc5C5CC5)C4)CC3)ccc2n1` [Example 99, 6-(2-(5-Cyclopropyl-3-(2-(trifluoromethyl)phenyl)isoxazol-4-yl)-7-azaspiro[3.5]non-1-en-7-yl)-4-(trifluoromethyl)quinoline-2-carboxylic acid]: the EC50 was determined as 92 nM.

`O=C(O)c1ccc2nc(N3CCC4(C=C(c5c(-c6c(Cl)cccc6Cl)noc5C5CC5)C4)CC3)cnc2c1` [Example 100, 2-(2-(5-cyclopropyl-3-(2,6-dichlorophenyl)isoxazol-4-yl)-7-azaspiro[3.5]non-1-en-7-yl)quinoxaline-6-carboxylic acid]: the EC50 came out at 33 nM.

`O=C(O)c1ccc2nc(N3CCC4(C=C(c5c(-c6ccccc6C(F)(F)F)noc5C5CC5)C4)CC3)cnc2c1` [Example 101, 2-(2-(5-Cyclopropyl-3-(2-(trifluoromethyl)phenyl)isoxazol-4-yl)-7-azaspiro[3.5]non-1-en-7-yl)quinoxaline-6-carboxylic acid] came in with an EC50 of 17 nM.

For `O=C(O)c1ccc2nc(N3CCC4(C=C(c5c(-c6ccccc6C(F)(F)F)noc5C5CC5)C4)CC3)sc2n1` [Example 102, 2-(2-(5-Cyclopropyl-3-(2-(trifluoromethyl)phenyl)isoxazol-4-yl)-7-azaspiro[3.5]non-1-en-7-yl)thiazolo[5,4-b]pyridine-5-carboxylic acid], the EC50 is 18 nM.

Take `Cc1cccc(Cl)c1-c1noc(C2CC2)c1C1=CC2(CCN(c3nc4c(F)cc(C(=O)O)cc4s3)CC2)C1` [Example 103, 2-(2-(3-(2-Chloro-6-methylphenyl)-5-cyclopropylisoxazol-4-yl)-7-azaspiro[3.5]non-1-en-7-yl)-4-fluorobenzo[d]thiazole-6-carboxylic acid]: the response was half-maximal at 19 nM (EC50).

The compound `CC(C)Oc1cc(C(=O)O)nc2ccc(N3CCC4(C=C(c5c(-c6ccccc6C(F)(F)F)noc5C5CC5)C4)CC3)cc12` [Example 104, 6-(2-(5-Cyclopropyl-3-(2-(trifluoromethyl)phenyl)isoxazol-4-yl)-7-azaspiro[3.5]non-1-en-7-yl)-4-isopropoxyquinoline-2-carboxylic acid] registered a concentration for a half-maximal effect (EC50) of 59 nM.

`COc1cc(C(=O)O)nc2ccc(N3CCC4(C=C(c5c(-c6ccccc6C(F)(F)F)noc5C5CC5)C4)CC3)cc12` [Example 105, 6-(2-(5-Cyclopropyl-3-(2-(trifluoromethyl)phenyl)isoxazol-4-yl)-7-azaspiro[3.5]non-1-en-7-yl)-4-methoxyquinoline-2-carboxylic acid] registered an EC50 of 62 nM.

What is called EC50 is the midpoint of the concentration-response curve. Low readings indicate greater potency, high ones weaker potency.
